{
  "source": "patent US20160378909A1",
  "about": "“PROCESS FOR IDENTIFYING CULTURE CONDITIONS FOR A CELL OR ORGANISM” (GLAXOSMITHKLINE BIOLOGICALS SA, priority 2013, published 2016)",
  "tested_on": "Bordetella pertussis",
  "test": "microbe, parasite or virus in culture",
  "format": "cell-based",
  "details": "for activity at 1330 µM / activity at 2000 µM / activity at 0.1 µg/mL / activity at 1 µg/mL / activity at 0.6 µg/mL / activity at 6 µg/mL / activity at 0.2 µg/mL / activity at 2 µg/mL / activity at 20000 µM / activity at 0.3 µg/mL / activity at 3 µg/mL: Bordetella pertussis",
  "experimental": "Cells were harvested by centrifugation, washed twice with NaCl 0.9% (w/v), and resuspended in fresh medium (de novo minimal CDM; see composition in Table 1) at a theoretical OD650 nm of 0.5, as calculated from the OD650 nm of the culture before harvest. 20 μl of this cell suspension were used to inoculate each well of a 96-well microtiter plate filled with 180 μl of de novo minimal CDM. Only the inner wells of the plate were used for cultures, in order to minimize evaporation, and two controls were included, in which the supplement solution was replaced with water.\nThe plate was then incubated for 7 days at 35° C. in a Biotek Synergy H1 reader with constant shaking, and growth was automatically monitored every 10 minutes as OD650 nm.\nThe relative growth yield and growth rate for each supplement was then averaged over the three independent repeats, and the standard deviation was calculated.",
  "key": {"[1]": {"details": "168 h, read-out: Relative yield Average, 2 mM in medium, max OD650 nm relative to water controls"}, "[2]": {"details": "read-out: Relative growth rate Average, 2 mM in medium, first generation, relative to water controls"}, "[3]": {"details": "168 h, read-out: Relative yield Average, 20 mM in medium, max OD650 nm relative to water controls"}, "[4]": {"details": "2 mM in medium, max OD650 nm relative to water controls"}},
  "note": "Read-outs that look alike come from different tables or passages of the source.",
  "data": [
    {"compound": "N[C@@H](Cc1ccccc1)C(=O)O", "note": "[L-Phenylalanine]", "values": [
      {"measurement": "activity at 1330 µM", "setting": "168 h, read-out: Relative yield Average, 1.33 mM in medium, max OD650 nm relative to water controls", "result": "< 95", "unit": "%"},
      {"measurement": "activity at 1330 µM", "setting": "read-out: Relative growth rate Average, 1.33 mM in medium, first generation, relative to water controls", "result": "< 95", "unit": "%"}
    ]},
    {"compound": "O=P([O-])([O-])O.[Na+].[Na+]", "note": "[Na2HPO4]", "values": [
      {"measurement": "Relative growth rate Average", "setting": "1 mM in medium, first generation, relative to water controls", "result": 99.98, "unit": "%"},
      {"measurement": "Relative growth rate Average", "setting": "10 mM in medium, first generation, relative to water controls", "result": 101.26, "unit": "%"}
    ]},
    {"compound": "O=C(O)CCC(=O)O", "note": "[Succinic acid]", "values": [
      {"measurement": "activity at 2000 µM", "setting": "[1]", "result": "< 95", "unit": "%"}
    ]},
    {"compound": "O.O.[Ca+2].[Cl-].[Cl-]", "note": "[CaCl2•2H2O]", "values": [
      {"measurement": "Relative growth rate Average", "setting": "0.3 mM in medium, first generation, relative to water controls", "result": 107.49, "unit": "%"},
      {"measurement": "Relative yield Average", "setting": "0.3 mM in medium, max OD650 nm relative to water controls", "result": 104.03, "unit": "%"},
      {"measurement": "Relative growth rate Average", "setting": "3 mM in medium, first generation, relative to water controls", "result": 92.03, "unit": "%"},
      {"measurement": "Relative yield Average", "setting": "3 mM in medium, max OD650 nm relative to water controls", "result": 107.34, "unit": "%"}
    ]},
    {"compound": "NC(=O)c1ccc[n+]([C@@H]2O[C@H](COP(=O)([O-])OP(=O)(O)OC[C@H]3O[C@@H](n4cnc5c(N)ncnc54)[C@H](O)[C@@H]3O)[C@@H](O)[C@H]2O)c1", "note": "[NAD]", "values": [
      {"measurement": "Relative growth rate Average", "setting": "10 mg/L in medium, first generation, relative to water controls", "result": 100.14, "unit": "%"},
      {"measurement": "Relative yield Average", "setting": "10 mg/L in medium, max OD650 nm relative to water controls", "result": 100.15, "unit": "%"},
      {"measurement": "Relative growth rate Average", "setting": "100 mg/L in medium, first generation, relative to water controls", "result": 97.38, "unit": "%"},
      {"measurement": "Relative yield Average", "setting": "100 mg/L in medium, max OD650 nm relative to water controls", "result": 104.61, "unit": "%"}
    ]},
    {"compound": "Nc1nc2nc[nH]c2c(=O)[nH]1", "note": "[Guanine]", "values": [
      {"measurement": "activity at 0.1 µg/mL", "setting": "168 h, read-out: Relative yield Average, 0.1 mg/L in medium, max OD650 nm relative to water controls", "result": "95 to 105", "unit": "%"},
      {"measurement": "activity at 1 µg/mL", "setting": "168 h, read-out: Relative yield Average, 1 mg/L in medium, max OD650 nm relative to water controls", "result": "95 to 105", "unit": "%"},
      {"measurement": "activity at 0.1 µg/mL", "setting": "read-out: Relative growth rate Average, 0.1 mg/L in medium, first generation, relative to water controls", "result": "95 to 105", "unit": "%"},
      {"measurement": "activity at 1 µg/mL", "setting": "read-out: Relative growth rate Average, 1 mg/L in medium, first generation, relative to water controls", "result": "95 to 105", "unit": "%"}
    ]},
    {"compound": "C[N+](C)(C)CCO.[Cl-]", "note": "[Choline chloride]", "values": [
      {"measurement": "activity at 0.6 µg/mL", "setting": "168 h, read-out: Relative yield Average, 0.6 mg/L in medium, max OD650 nm relative to water controls", "result": "95 to 105", "unit": "%"},
      {"measurement": "activity at 6 µg/mL", "setting": "168 h, read-out: Relative yield Average, 6 mg/L in medium, max OD650 nm relative to water controls", "result": "95 to 105", "unit": "%"},
      {"measurement": "activity at 0.6 µg/mL", "setting": "read-out: Relative growth rate Average, 0.6 mg/L in medium, first generation, relative to water controls", "result": "95 to 105", "unit": "%"},
      {"measurement": "activity at 6 µg/mL", "setting": "read-out: Relative growth rate Average, 6 mg/L in medium, first generation, relative to water controls", "result": "95 to 105", "unit": "%"}
    ]},
    {"compound": "N[C@@H](CC(=O)O)C(=O)O", "note": "[L-Aspartate]", "values": [
      {"measurement": "Relative growth rate Average", "setting": "0.225 mM in medium, first generation, relative to water controls", "result": 96.87, "unit": "%"},
      {"measurement": "Relative yield Average", "setting": "0.225 mM in medium, max OD650 nm relative to water controls", "result": 106.30, "unit": "%"},
      {"measurement": "Relative growth rate Average", "setting": "2.25 mM in medium, first generation, relative to water controls", "result": 72.32, "unit": "%"},
      {"measurement": "Relative yield Average", "setting": "2.25 mM in medium, max OD650 nm relative to water controls", "result": 99.74, "unit": "%"}
    ]},
    {"compound": "Nc1ccc(C(=O)O)cc1", "note": "[para-aminobenzoic acid]", "values": [
      {"measurement": "activity at 0.2 µg/mL", "setting": "168 h, read-out: Relative yield Average, 0.2 mg/L in medium, max OD650 nm relative to water controls", "result": "95 to 105", "unit": "%"},
      {"measurement": "activity at 2 µg/mL", "setting": "168 h, read-out: Relative yield Average, 2 mg/L in medium, max OD650 nm relative to water controls", "result": "95 to 105", "unit": "%"},
      {"measurement": "activity at 0.2 µg/mL", "setting": "read-out: Relative growth rate Average, 0.2 mg/L in medium, first generation, relative to water controls", "result": "> 105", "unit": "%"},
      {"measurement": "activity at 2 µg/mL", "setting": "read-out: Relative growth rate Average, 2 mg/L in medium, first generation, relative to water controls", "result": "95 to 105", "unit": "%"}
    ]},
    {"compound": "CC(C)[C@H](N)C(=O)O", "note": "[L-Valine]", "values": [
      {"measurement": "activity at 2000 µM", "setting": "[1]", "result": "95 to 105", "unit": "%"},
      {"measurement": "activity at 2000 µM", "setting": "[2]", "result": "< 95", "unit": "%"}
    ]},
    {"compound": "NC(=O)CC[C@H](N)C(=O)O", "note": "[L-Glutamine]", "values": [
      {"measurement": "activity at 2000 µM", "setting": "[1]", "result": "95 to 105", "unit": "%"},
      {"measurement": "activity at 20000 µM", "setting": "[3]", "result": "> 105", "unit": "%"},
      {"measurement": "activity at 2000 µM", "setting": "[2]", "result": "95 to 105", "unit": "%"},
      {"measurement": "activity at 20000 µM", "setting": "read-out: Relative growth rate Average, 20 mM in medium, first generation, relative to water controls", "result": "< 95", "unit": "%"}
    ]},
    {"compound": "Cc1cc2nc3c(=O)[nH]c(=O)nc-3n(C[C@H](O)[C@H](O)[C@H](O)CO)c2cc1C", "note": "[Riboflavin]", "values": [
      {"measurement": "activity at 0.3 µg/mL", "setting": "168 h, read-out: Relative yield Average, 0.3 mg/L in medium, max OD650 nm relative to water controls", "result": "95 to 105", "unit": "%"},
      {"measurement": "activity at 3 µg/mL", "setting": "168 h, read-out: Relative yield Average, 3 mg/L in medium, max OD650 nm relative to water controls", "result": "95 to 105", "unit": "%"},
      {"measurement": "activity at 0.3 µg/mL", "setting": "read-out: Relative growth rate Average, 0.3 mg/L in medium, first generation, relative to water controls", "result": "> 105", "unit": "%"},
      {"measurement": "activity at 3 µg/mL", "setting": "read-out: Relative growth rate Average, 3 mg/L in medium, first generation, relative to water controls", "result": "95 to 105", "unit": "%"}
    ]},
    {"compound": "O=C([O-])O.[Na+]", "note": "[NaHCO3]", "values": [
      {"measurement": "Relative yield Average", "setting": "[4]", "result": 102.33, "unit": "%"}
    ]},
    {"compound": "CC(O)CC(=O)[O-].[Na+]", "note": "(racemic) [Sodium DL-beta-hydroxybutyrate]", "values": [
      {"measurement": "Relative growth rate Average", "setting": "2 mM in medium, first generation, relative to water controls", "result": 100.28, "unit": "%"},
      {"measurement": "Relative yield Average", "setting": "[4]", "result": 96.73, "unit": "%"},
      {"measurement": "Relative growth rate Average", "setting": "20 mM in medium, first generation, relative to water controls", "result": 94.37, "unit": "%"},
      {"measurement": "Relative yield Average", "setting": "20 mM in medium, max OD650 nm relative to water controls", "result": 145.46, "unit": "%"}
    ]},
    {"compound": "O.O=S(=O)([O-])[O-].[Mn+2]", "note": "[MnSO4•H2O]", "values": [
      {"measurement": "Relative growth rate Average", "setting": "1.89 mg/L in medium, first generation, relative to water controls", "result": 91.27, "unit": "%"},
      {"measurement": "Relative yield Average", "setting": "1.89 mg/L in medium, max OD650 nm relative to water controls", "result": 109.53, "unit": "%"},
      {"measurement": "Relative growth rate Average", "setting": "18.9 mg/L in medium, first generation, relative to water controls", "result": 47.58, "unit": "%"},
      {"measurement": "Relative yield Average", "setting": "18.9 mg/L in medium, max OD650 nm relative to water controls", "result": 91.55, "unit": "%"}
    ]},
    {"compound": "CC[C@H](C)[C@H](N)C(=O)O", "note": "[L-Isoleucine]", "values": [
      {"measurement": "activity at 2000 µM", "setting": "[1]", "result": "< 95", "unit": "%"},
      {"measurement": "activity at 20000 µM", "setting": "[3]", "result": "< 95", "unit": "%"},
      {"measurement": "activity at 2000 µM", "setting": "[2]", "result": "< 95", "unit": "%"},
      {"measurement": "Effect on growth rate in comparison to a minimally identified medium", "setting": "no concentration stated", "result": "negative effect"}
    ]}
  ]
}
